Laboratory results reported in patent US9642854B2, “Flavanoid compounds and process for preparation thereof” (Council of Scientific & Industrial Research, priority 2009, dated 2017).
Converted amounts (≈) assume the structure as drawn. Read-outs that look alike come from different tables or passages of the source.

Tested on: H. pylori
Assay: Anti H. pylori spectrum (MIC) by agar dilution method
Type: cell-based, Helicobacter pylori
Settings: Helicobacter pylori; for MIC50: MIC against 50% of the strains of the panel, read-out: MIC50
In short: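 Agar dilution per CLSI against six clinical isolates and four standard strains on BHI agar with 7% FCS, 0.5% IsoVitalex and DENT. Inoculum ~10^8 CFU/mL; 2-fold compound dilutions from 1.56-100; 72 h microaerophilic at 37 °C. MIC read visually as no growth, in duplicate; MIC50 covers 50% of strains.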

Structure (SMILES): O=c1cc(-c2ccccc2)oc2cc(OCCCCCCN3CCCCC3)cc(O)c12 [CPP-1, 5-Hydroxy-2-phenyl-7-(6-piperidin-1-yl-hexyloxy)-chromen-4-one]
- MIC50 (72 h): ~3.12 µg/mL (≈ 7.41 µM)
- MIC (72 h, panel of 6 clinical isolates and 4 standard strains, read-out: MIC Range): 3.12 to 25 µg/mL (≈ 7.41 to 59.3 µM)
- MIC50: 3.12 µg/mL (≈ 7.41 µM)
- MIC (clinical strain HP001, read-out: MIC): 6.25 µg/mL (≈ 14.8 µM)
- MIC (clinical strain HP002, read-out: MIC): 6.25 µg/mL (≈ 14.8 µM)
- MIC (clinical strain HP003, read-out: MIC): < 3.12 µg/mL
- MIC (clinical strain HP004, read-out: MIC): < 3.12 µg/mL
- MIC (clinical strain HP005, read-out: MIC): < 3.12 µg/mL
- MIC (clinical strain HP006, read-out: MIC): < 3.12 µg/mL
- MIC (standard strain 43504, read-out: MIC): 6.25 µg/mL (≈ 14.8 µM)
- MIC (standard strain 43629, read-out: MIC): 25 µg/mL (≈ 59.3 µM)
- MIC (standard strain 49503, read-out: MIC): 6.25 µg/mL (≈ 14.8 µM)
- MIC (standard strain 700392, read-out: MIC): 3.12 µg/mL (≈ 7.41 µM)
